Source: patent US20220348565A1, “PHARMACEUTICAL COMPOUNDS” (SENTINEL ONCOLOGY LIMITED, priority 2019, published 2022)

How the values were obtained:
[1] = system: U87MG cells; assay: U87MG human glioblastoma cell viability, SRB assay, 72 hours; type: cell-based; details: listed as A-3
Method: The following protocol was used to measure the effects of compounds of the invention on U87MG cell viability.
U87MG cells were grown in their recommended growth media/supplements (ATCC). Cells were seeded at a concentration of 5000 cells per well into 96 well plates overnight at 37° C., 5% CO2. Cells were treated with relevant concentrations of test compound for 72 hours. After 72 hours incubation, viability was established using sulforhodamine B (SRB) colorimetric assay. Percentage viability was calculated against the mean of the DMSO treated control samples, and IC50 values for inhibition of cell growth were calculated using GraphPad Prism software by nonlinear regression (4 parameter logistic equation).

[2] = system: HeLa cells; assay: Cells in mitosis (phospho-histone H3, mitotic index), HeLa; type: cell-based; details: Homo sapiens, % mitotic cells (phospho-histone H3), 24 hours
Text: (§1) Inhibiting the ability of PLK1 and PLK4 to bind to their partners through their PBDs is known to cause cells to arrest in mitosis. Experimentally, this can be measured by assessing the number of cells which are in mitosis at a certain time after treatment with a test compound by immunofluorescent detection of phosphorylated Histone H3 (pH3), a mark which is only present in mitotic cells. PLK1/4-PBD inhibitors are expected to cause a dose-dependent increase in pH3-positive cells, which is reported as Mitotic Index (MI)—the percentage of cells which, at a given time, are positive for this mitotic mark.
(§2) The following protocol was used to measure the effects of atropisomer A-2 and atropisomer A-3 on arresting cells in mitosis.
(§3) Cells were plated at 10 000/well in 96-well plates and incubated overnight. The following day atropisomer A-2 stocks in DMSO were diluted in medium then added to cells with a maximum final DMSO concentration on cells of 0.2%. Cells were incubated with the compound for 24 hours then fixed in 3.7% formaldehyde. Cells were permeabilised with 0.1% Triton X-100 then incubated with anti-phospho-histone H3 (Ser10) antibody (Abcam). The cells were washed with PBS then incubated with AlexaFluor 488 labelled goat anti-rabbit IgG (Invitrogen) in the presence of 4 ug/mL Hoechst 33342 (Invitrogen). […]

[3] = system: U87MG cells; assay: Cells in mitosis (phospho-histone H3, mitotic index), U87MG; type: cell-based; details: Homo sapiens, U-87 MG; % mitotic cells (phospho-histone H3), 24 hours
Text: as §1, §2, §3

[4] = system: wild-type KRAS HeLa cells; assay: HeLa cell viability, wild-type KRAS transgene, Cell Titre Blue; type: cell-based; details: 72 hours, listed as A-3, read-out: WT GI50
Method: (§4) Atropisomers A-1, A-2, A-3 and A-4 were tested on HeLa cells engineered to inducibly express wild-type or oncogenic KRasG12V transgenes using the FLP-in/T-Rex system (Invitrogen). Cells were plated, and then treated with or without Doxycycline to induce transgene expression, and then treated with serially-diluted PBD inhibitors. After 72 hours of incubation, cell viability was assessed using the Cell Titre Blue reagent (Promega) and a BMG Pherastar plate reader. The effect of PBD inhibition on cell viability with either wild-type or oncogenic G12V KRAS was assessed using GraphPad Prism.
(§5) From the results obtained by following the above protocol, the GI50 values against the wild-type and KRAS G12V HeLa cell line of each of the atropisomers were determined as shown in Table 12.

[5] = system: KRAS G12V HeLa cell line; assay: HeLa cell viability, oncogenic KRasG12V transgene, Cell Titre Blue; type: cell-based; details: KRAS G12V HeLa cells, 72 hours; listed as A-3
Method: as §4, §5

[6] = Mouse PK, plasma after i.v. and p.o. dosing (oral bioavailability); type: in vivo, Male CD-1 mice; details: for half-life: read-out: T ½ (converted)
Method: (§6) Atropisomers A-2 and A-3 were evaluated in an in vivo mouse model to determine brain and plasma concentrations following p.o. and i.v. dosing.
(§7) Male CD-1 mice were dosed with the compounds of Examples A-2 and A-3, either by i.v. administration (2 mg/kg) or by p.o. administration (10 mg/kg). Eight samples were taken for analysis in the i.v. leg at 2, 10, 30 min, 1, 2, 4, 8, and 24 (for i.v) and 9 samples in the p.o. leg at 15, 30 min, 1, 2, 4, 8, 24, 48 and 72 hrs.
(§8) The compounds of Examples A-2 and A-3 were both formulated in 10% DMSO/90% hydroxypropyl-beta-cyclodextrin (20% w/v in water) for i.v. and p.o. dosing. N =3 mice per time point.
(§9) Post dosing, terminal blood samples were taken from individual animals and delivered into labelled polypropylene tubes containing anticoagulant (EDTA). The samples were held on wet ice for a maximum of 30 min while sampling of all the animals in the cohort was completed. The blood samples were centrifuged for plasma (4° C., 21100 g for 5 min) and the resulting plasma transferred into corresponding labelled tubes. Terminal brains from each PO dosed animal were excised, rinsed with saline and placed into pre-weighed labelled polypropylene tubes and the samples re-weighed prior to storage.
(§10) Quantitative bioanalysis was carried out using liquid chromatography—mass spectroscopy was performed. The results are shown in Tables 14, 15 and 16 below and in FIGS. 12 to 15.

[7] = Mouse PK, brain exposure after p.o. dosing; type: in vivo, Male CD-1 mice
Method: as §6, §7, §8, §9, §10

[8] = mouse, 2 mg/kg, 2 mq/Kq IV, male CD-1 mice, plasma
[9] = mouse, 10 mg/kg, 10 mq/Kq PO, male CD-1 mice, plasma
[10] = mouse, po, brain exposure, p.o. 10 mg/kg, male CD-1 mice

- IC50 [1]: 150 nM
- EC50 [2]: 30 nM
- EC50 [3]: 100 nM
- GI50 [4]: 4.68 nM
- GI50 [5]: 2.6 nM
- CI ([6]; 2 mq/Kq IV, male CD-1 mice, plasma): 16.8 mL/min/kg
- F ([6]; 10 mq/Kq PO vs 2 mq/Kq IV, male CD-1 mice): 70%
- AUC(0-inf) [6, 8]: 1990 ng·h/mL
- Cmax [6, 8]: 274 ng/mL
- half-life [6, 8]: 8.4 h
- AUC(0-inf) [6, 9]: 6920 ng·h/mL
- Cmax [6, 9]: 322 ng/mL
- half-life [6, 9]: 8.3 h
- AUC(0-t) ([6]; mouse, po, plasma, p.o. 10 mg/kg, male CD-1 mice, read-out: AUClast plasma): 6920 ng·h/mL
- oral absorption / oral bioavailability (in words) ([6]; oral dosing in mice): highly absorbed
- Cmax [7, 10]: 604 ng/mL
- Tmax [7, 10]: 8 h
- half-life ([7]; mouse, po, brain exposure, p.o. 10 mg/kg, male CD-1 mice, read-out: T ½ (converted)): 8.2 h
- AUC(0-t) ([7]; mouse, po, brain, p.o. 10 mg/kg, male CD-1 mice, read-out: AUClast brain): 14100 ng·h/mL
- brain exposure (in words) ([7]; oral dosing in mice): high brain exposure
Compound: CN(C)CCNC(=O)c1ccc(-c2ccc(-c3ccc(Cl)cc3)n2-c2ccccc2C(F)(F)F)nc1 (single isomer, unassigned) [Atropisomer A-3, 6-[5-(4-chlorophenyl)-1-[2-(trifluoromethyl)phenyl]pyrrol-2-yl]-N-[2-(dimethylamino)ethyl]pyridine-3-carboxamide]
